# In patent US9403835B2, “Tetraaza-cyclopenta[a]indenyl and their use as positive allosteric modulators” (Merck Patent GmbH, priority 2011, dated 2016):
# Assays:
# muscarinic M1 receptor = target: T1, muscarinic M1 receptor (Homo sapiens, UniProt P11229); assay: M1 PAM Assay (IP-One HTRF, IP1 in M1-CHO cells with EC20 of acetylcholine); type: cell-based; details: 1 hour at room temperature, IP1 readout
# T1 construct: expressed in transfected cells; host or cells: CHO (M1-CHO cells)
# T1 sequence (P11229 1-460): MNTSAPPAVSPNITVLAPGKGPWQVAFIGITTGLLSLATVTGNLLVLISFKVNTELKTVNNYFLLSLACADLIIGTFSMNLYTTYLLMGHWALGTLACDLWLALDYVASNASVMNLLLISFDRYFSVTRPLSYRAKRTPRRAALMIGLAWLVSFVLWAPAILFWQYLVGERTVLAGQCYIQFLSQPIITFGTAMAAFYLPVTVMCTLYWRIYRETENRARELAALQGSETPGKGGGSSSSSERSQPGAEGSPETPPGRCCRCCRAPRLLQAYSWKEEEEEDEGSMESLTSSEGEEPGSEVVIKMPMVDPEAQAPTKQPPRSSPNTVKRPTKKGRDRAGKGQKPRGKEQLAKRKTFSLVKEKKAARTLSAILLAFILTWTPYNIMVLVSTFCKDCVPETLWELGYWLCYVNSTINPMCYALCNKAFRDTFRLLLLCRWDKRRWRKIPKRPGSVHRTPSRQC
# Method: M1-CHO cells are plated in culture medium (HAM's F12, P/S, 10% FCS) on the day before the experiment with 10 000 cells/well in a 384 well plate (3750 Corning White 384 w plate with lid). On the day of experiment, cells are washed with PBS and IPone buffer is added (glucose 5.5 mM, NaCl 146 mM, MgCl2 0.5 mM, HEPES 10 mM, LiCl 50 mM, CaCl2 1 mM, KCl 4.2 mM). Then diluted compounds (1% DMSO final concentration) are added together with EC20 of acetylcholine and incubated with the cells for 1 hour at room temperature. The intracellular concentration of IP1 is then measured using the IP-One HTRF assay from Cisbio.
melting point,EC50 (muscarinic M1 receptor),Compound
164 to 167 °C,200 to 1000 nM,CCOc1ccccc1C(=O)N1Cc2nn3c(C)c(Cl)c(C)nc3c2C1 [Example 10]
185 to 187 °C,200 to 1000 nM,"COc1c(F)cc(F)cc1C(=O)N1Cc2nn3c(C)c(Cl)c(C)nc3c2C1 [Example 16, (6-chloro-5,7-dimethyl-1H,3H-2,4,7a,8-tetraaza-cyclopenta[a]inden-2-yl)-(3,5-difluoro-2-methoxy-phenyl)-methanone]"
